# Experimental data published in patent US7465469B2, “Microbiocidal formulation comprising essentials oils or their derivatives” (State of Israel, Ministry of Agriculture & Rural …, priority 2001, dated 2008).
# Experiments:
# kumquat fruit = test: Decay of uninoculated kumquat fruit after storage and shelf life simulation; format: in vivo; conditions: 11 days at 10° C. and shelf life at 20° C. for 6 days; limonene 5000 μL L^−1 exposed to sunlight for 3 hours in 25% ethanol + 5000 μL L^−1 TWEEN 20
# Procedure: Exposure to sunlight or irradiation of the dichloromethane or hexane extract of lemon flavedo should be conducted for 3 to 6 hours. The efficiency of the extract hydroperoxide formulation as a biocidal composition grows with longer periods of exposure of the fruit to the hydroperoxide solution. […] The effect of exposure of limonene to 3 hours of sunlight and its efficiency as preventing decay compared to no treatment (dipping in water) or treatment with an ethanol solution (25%) are summarized in Table 4 in a commercial like experiment with uninoculated fruit.
# Penicillium digitatum [1] = test: Decay of Penicillium-inoculated grapefruit after 2-minute dip; format: in vivo, Penicillium digitatum on grapefruit; conditions: 25% Ethanol dip; three weeks after inoculation
# Excerpt: Unblemished grapefruit were harvested from the orchard and on the same day sorted again in the laboratory to eliminate injured fruit. The grapefruit were washed with tap water and air-dried. Each fruit was then inoculated by piercing its flavedo tissue 1.5 mm deep with a tool incorporating three needles at three different sites. Prior to each piercing, the tool was immersed in a spore suspension of Penicillium digitatum (10^6 spores/ml).
# [2] = tested on: non-inoculated Washington oranges; test: Decay percentage of non-inoculated Washington oranges during storage; format: in vivo, Washington navel oranges
# Procedure: Non-inoculated Washington navel oranges were divided into […] groups which were treated as follows: (a) no treatment; (b) dipped in 50% Ethanol; (c) dipped in 0.2% Citral in 0.02% L-77 Emulsifier (aqueous emulsion); (d) dipped in 0.2% Citral in 50% Ethanol; and (e) dipped in a 0.2% aqueous Imazalil solution.
# Oranges were then stored for four months at 15° C. in 50-75% relative humidity and the percentage of rotten fruit in each group was measured at different time periods after storage.
# Penicillium digitatum [3] = test: Decay of lemons inoculated with Penicillium 10^4 spores/ml and dipped; format: in vivo, Penicillium digitatum on lemons; conditions: inoculated lemons dipped a day after inoculation, kept 6 days at 20° C.
# Procedure: Lemon fruit flavedo (exocarp) was taken and extracted overnight in dichloromethane, then exposed to sunlight for about 18 hours until the color of the dichloromethane extract turned brown. The flavedo was blended and filtered through a layer of Whatman paper. The extracted solution was evaporated to remove the dichloromethane and the dense liquor was further separated by chromatography with a silica 60 column using dichloromethane as a carrier. Two fractions of dichloromethane, one green and the other colorless, were obtained after chromatography. The crude active extract was isolated by evaporation of the green dichloromethane fraction. […] Effect of the compounds on pathogen development on the fruit was checked daily during storage.
# The antifungal activity of the products prepared in the two different routes was checked in the same method. […] Decay was evaluated at specific intervals during a period of 26 days.
# Lemons inoculated with Penicillium (10^4 spores/ml) were dipped in an aqueous solution comprising citral, a detergent (Tween 20), other essential oil components as well as a dichloromethane crude extract of lemon flavedo exposed to sunlight. Decay was evaluated at specific intervals during a period of 20 days.
# Pure limonene was exposed to sunlight for three hours. […]
smiles,measurement,setting,value
"CCO [Ethanol 25%, Ethanol]","Decay of kumquat fruit, End of storage",kumquat fruit,7.9 ab
same,fruit rotten,Penicillium digitatum [1],more than 50%
same,% of rotten fruit,[2]; 0.5 months of storage at 15° C.,0%
same,% of rotten fruit,[2]; 1 month of storage at 15° C.,4%
same,% of rotten fruit,[2]; 2 months of storage at 15° C.,14%
same,% of rotten fruit,[2]; 3 months of storage at 15° C.,20%
same,% of rotten fruit,[2]; 4 months of storage at 15° C.,23%
same,% Decay,Penicillium digitatum [3],30%
